Nine compounds from ChEMBL document CHEMBL3580614, “Hypermongones A-J, Rare Methylated Polycyclic Polyprenylated Acylphloroglucinols from the Flowers of Hypericum monogynum” (J Nat Prod, 2015) can be followed below.

Data set [1] has as its system RAW264.7. Kind of data set: Antiinflammatory activity in mouse RAW264.7 cells assessed as inhibition of LPS-induced NO production incubated for 2 hrs prior to LPS-challenge measured after 24 hrs by Greiss assay. The format is functional, cell-based.
The test system of data set [2] is RAW264.7. The data set can be described thus: Cytotoxicity against mouse RAW264.7 cells assessed as cell viability up to 100 uM. The format is cell-based.

The structures appear in SMILES notation. Some results are limits rather than exact numbers.

The term IC50 denotes the concentration that inhibits the measured activity by half.

Turning to `CC[C@H](C)C(=O)[C@]12C(=O)[C@](C)(C[C@H](CC=C(C)C)[C@@]1(C)CCC=C(C)C)C(=O)C1=C2O[C@@H](C(C)(C)O)C1`, the IC50 in data set [1] was found to be 14.5 µM. Moreover, the Activity result in data set [2] is reported as “Non-toxic”.
The like results for `CC[C@H](C)C(=O)[C@]12C(=O)[C@](C)(C[C@H](CC=C(C)C)[C@@]1(C)CCC=C(C)C)C(=O)C1=C2O[C@H](C(C)(C)O)C1` were, in that order, 23.7 µM and “Non-toxic”.
The corresponding values for `CC(C)=CCC[C@]1(C)[C@@H](CC=C(C)C)C[C@]2(C)C(=O)C3=C(O[C@@H](C(C)(C)O)C3)[C@@]1(C(=O)C(C)C)C2=O` are 27.3 µM and “Non-toxic”.
On to `CC(C)=CCC[C@]1(C)[C@@H](CC=C(C)C)C[C@]2(C)C(=O)C3=C(O[C@H](C(C)(C)O)C3)[C@@]1(C(=O)C(C)C)C2=O`, for which the half-inhibitory concentration (IC50) in data set [1] is > 50 µM. The Activity entry in data set [2] is “Non-toxic”.
The like results for `CC[C@H](C)C(=O)[C@@]12C(=O)C3=C(O[C@H](C(C)(C)O)C3)[C@@](C)(C[C@H](CC=C(C)C)[C@@]1(C)CCC=C(C)C)C2=O` were, in that order, 18.7 µM and “Non-toxic”.
The corresponding values for `CC[C@H](C)C(=O)[C@@]12C(=O)C3=C(O[C@@H](C(C)(C)O)C3)[C@@](C)(C[C@H](CC=C(C)C)[C@@]1(C)CCC=C(C)C)C2=O` are 15.2 µM and “Non-toxic”.
`CC(C)=CCC[C@]1(C)[C@@H](CC=C(C)C)C[C@@]2(C)C(=O)[C@]1(C(=O)C(C)C)C(=O)C1=C2O[C@H](C(C)(C)O)C1`: the half-inhibitory concentration (IC50) in data set [1] was 9.5 µM. For the same compound, the Activity entry in data set [2] is recorded as “Non-toxic”.
Regarding `CC(C)=CCC[C@]1(C)[C@@H](CC=C(C)C)C[C@@]2(C)C(=O)[C@]1(C(=O)C(C)C)C(=O)C1=C2O[C@@H](C(C)(C)O)C1`, the IC50 in data set [1] is 14.9 µM. Further, the Activity entry in data set [2] is given as “Non-toxic”.
As to `CNC(=N)NCCC[C@H](N)C(=O)O` [TILARGININE], in data set [1], the IC50 amounted to 39.2 µM. For the same compound, the Activity result in data set [2] was “Non-toxic”.
